How the values were obtained:
Assay type in all cases: cell-based
CCRF-CEM = assay: NCI screen, growth of human tumor cells: Leukemia CCRF-CEM; conditions: CCRF-CEM (Leukemia), 10^−4 molar
Outline: (§1)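 NCI screening: compound applied to tumor cell lines at a given molar concentration, growth measured as percent. Minimum 60 data points/compound; cancer type noted.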

RPMI-8226 = assay: NCI screen, growth of human tumor cells: Leukemia RPMI-8226; conditions: RPMI-8226 (Leukemia), 10^−4 molar
Outline: as §1

SR = assay: NCI screen, growth of human tumor cells: Leukemia SR; conditions: SR (Leukemia), 10^−4 molar
Outline: as §1

AS49/ATCC = assay: NCI screen, growth of human tumor cells: Non-Small Cell Lung AS49/ATCC; conditions: AS49/ATCC (Non-Small Cell Lung), 10^−4 molar
Protocol: (§2) In the NCI screening process, each compound was tested and described by a minimum of 60 data points. The test data include, but are not limited to the type of cancer, the molar concentration used in the screen, and the percent growth of the cancer. In some cases, NMR and elemental analysis were used for structural assignment.

HOP-62 = assay: NCI screen, growth of human tumor cells: Non-Small Cell Lung HOP-62; conditions: HOP-62 (Non-Small Cell Lung), 10^−4 molar
Outline: as §1

NCI-H226 = assay: NCI screen, growth of human tumor cells: Non-Small Cell Lung NCI-H226; conditions: NCI-H226, 10^−4 molar
Outline: as §1

NCI-H522 = assay: NCI screen, growth of human tumor cells: Non-Small Cell Lung NCI-H522; conditions: NCI-H522, 10^−4 molar
Protocol: as §2

NCI-H322M = assay: NCI screen, growth of human tumor cells: Non-Small Cell Lung NCI-H322M; conditions: NCI-H322M (Non-Small Cell Lung), 10^−4 molar
Protocol: as §2

NCI-H23 = assay: NCI screen, growth of human tumor cells: Non-Small Cell Lung NCI-H23; conditions: NCI-H23, 10^−4 molar
Outline: as §1

COLO205 = assay: NCI screen, growth of human tumor cells: Colon Cancer COLO205; conditions: COLO205, 10^−4 molar
Outline: as §1

HCT-116 = assay: NCI screen, growth of human tumor cells: Colon Cancer HCT-116; conditions: HCT-116 (Colon Cancer), 10^−4 molar
Outline: as §1

HT29 = assay: NCI screen, growth of human tumor cells: Colon Cancer HT29
Protocol: as §2

KM12 = assay: NCI screen, growth of human tumor cells: Colon Cancer KM12; conditions: KM12 (Colon Cancer), 10^−4 molar
Outline: as §1

SF-268 = assay: NCI screen, growth of human tumor cells: CNS Cancer SF-268; conditions: SF-268 (CNS Cancer), 10^−4 molar
Outline: as §1

SF-295 = assay: NCI screen, growth of human tumor cells: CNS Cancer SF-295; conditions: SF-295, 10^−4 molar
Outline: as §1

SF-539 = assay: NCI screen, growth of human tumor cells: CNS Cancer SF-539; conditions: SF-539, 10^−4 molar
Outline: as §1

U-251 = assay: NCI screen, growth of human tumor cells: CNS Cancer U-251; conditions: U-251 (CNS Cancer), 10^−4 molar
Outline: as §1

M14 = assay: NCI screen, growth of human tumor cells: Melanoma M14; conditions: M14 (Melanoma), 10^−4 molar
Outline: as §1

MALME-3M = assay: NCI screen, growth of human tumor cells: Melanoma MALME-3M; conditions: MALME-3M, 10^−4 molar
Protocol: as §2

SK-MEL-2 = assay: NCI screen, growth of human tumor cells: Melanoma SK-MEL-2; conditions: SK-MEL-2 (Melanoma), 10^−4 molar
Protocol: as §2

SK-MEL-28 = assay: NCI screen, growth of human tumor cells: Melanoma SK-MEL-28
Protocol: as §2

SK-MEL-5 = assay: NCI screen, growth of human tumor cells: Melanoma SK-MEL-5; conditions: SK-MEL-5, 10^−4 molar
Outline: as §1

UACC-257 = assay: NCI screen, growth of human tumor cells: Melanoma UACC-257; conditions: UACC-257 (Melanoma), 10^−4 molar
Protocol: as §2

UACC-62 = assay: NCI screen, growth of human tumor cells: Melanoma UACC-62; conditions: UACC-62, 10^−4 molar
Outline: as §1

IGROVI = assay: NCI screen, growth of human tumor cells: Ovarian Cancer IGROVI; conditions: IGROVI (Ovarian Cancer), 10^−4 molar
Protocol: as §2

SK-OV-3 = assay: NCI screen, growth of human tumor cells: Ovarian Cancer SK-OV-3; conditions: SK-OV-3 (Ovarian Cancer), 10^−4 molar
Protocol: as §2

OVCAR-3 = assay: NCI screen, growth of human tumor cells: Ovarian Cancer OVCAR-3; conditions: OVCAR-3 (Ovarian Cancer), 10^−4 molar
Outline: as §1

OVCAR-5 = assay: NCI screen, growth of human tumor cells: Ovarian Cancer OVCAR-5; conditions: OVCAR-5, 10^−4 molar
Protocol: as §2

ACHN = assay: NCI screen, growth of human tumor cells: Renal Cancer ACHN; conditions: ACHN (Renal Cancer), 10^−4 molar
Outline: as §1

RXF-393 = assay: NCI screen, growth of human tumor cells: Renal Cancer RXF-393; conditions: RXF-393 (Renal Cancer), 10^−4 molar
Outline: as §1

SN12C = assay: NCI screen, growth of human tumor cells: Renal Cancer SN12C; conditions: SN12C (Renal Cancer), 10^−4 molar
Outline: as §1

DU-145 = assay: NCI screen, growth of human tumor cells: Prostate Cancer DU-145; conditions: DV-145, 10^−4 molar
Outline: as §1

MCF 7 = assay: NCI screen, growth of human tumor cells: Breast Cancer MCF 7; conditions: MCF 7 (Breast Cancer), 10^−4 molar
Protocol: as §2

BT-549 = assay: NCI screen, growth of human tumor cells: Breast Cancer BT-549; conditions: BT-549 (Breast Cancer), 10^−4 molar
Outline: as §1

HS 578T = assay: NCI screen, growth of human tumor cells: Breast Cancer HS 578T; conditions: HS 578T (Breast Cancer), 10^−4 molar
Outline: as §1

human cancer cells = assay: NCI screen summary over the cancers tested (negative growth of human cancer cells); conditions: cancers with negative growth / cancers tested
Protocol: as §2
The derivatives in the tables are grouped using the same category as in the tables 1-6.

For `CC1=C(CC2(C(=O)C(F)(F)C(F)(F)C(F)(F)F)S(=O)(=O)OCCOS2(=O)=O)C(=O)c2ccccc2C1=O` [NSC 720683, ethylene perfluorobutyril-(3-methyl-1,4-naphtho-2-quinoyl)-1,1-ethanedisulfonate], the “percent of growth of human tumor cells” value (CCRF-CEM) was 5%, the “percent of growth of human tumor cells” value (RPMI-8226) was 28% and the “percent of growth of human tumor cells” value (SR) was −22%. The “percent of growth of human tumor cells” value (AS49/ATCC) was −45%, the “percent of growth of human tumor cells” value (HOP-62) was −28% and the “% Growth” value (NCI-H226) was −68%. The “% Growth” value (NCI-H522) was −68%, the “percent of growth of human tumor cells” value (NCI-H322M) was 25% and the “% Growth” value (NCI-H23) was −75%. The “% Growth” value (COLO205) was −84%, the “percent of growth of human tumor cells” value (HCT-116) was 22% and the “% Growth” value (HT29; HT-29, 10^−4 molar) was −100%. For the same molecule, the “% Growth” value (HT29; HT-29, 10^−5 molar) was −37%, the “% Growth” value (HT29; HT-29, 10^−6 molar) was −6% and the “% Growth” value (HT29; HT-29, 10^−7 molar) was 23%. For the same molecule, the “percent of growth of human tumor cells” value (KM12) was 26%, the “percent of growth of human tumor cells” value (SF-268) was 1% and the “% Growth” value (SF-295) was −70%. For the same molecule, the “% Growth” value (SF-539) was −67%, the “percent of growth of human tumor cells” value (U-251) was 12% and the “percent of growth of human tumor cells” value (M14) was −56%. For the same molecule, the “% Growth” value (MALME-3M) was −87%, the “percent of growth of human tumor cells” value (SK-MEL-2) was −57% and the “% Growth” value (SK-MEL-28; SK-MEL-28, 10^−4 molar) was −85%. The “% Growth” value (SK-MEL-28; SK-MEL-28, 10^−5 molar) was −55%, the “% Growth” value (SK-MEL-28; SK-MEL-28, 10^−6 molar) was −31% and the “% Growth” value (SK-MEL-28; SK-MEL-28, 10^−7 molar) was 31%. The “% Growth” value (SK-MEL-28; SK-MEL-28, 10^−8 molar) was 74%, the “% Growth” value (SK-MEL-5) was −95% and the “percent of growth of human tumor cells” value (UACC-257) was −18%. The “% Growth” value (UACC-62) was −85%, the “percent of growth of human tumor cells” value (IGROVI) was 27% and the “percent of growth of human tumor cells” value (SK-OV-3) was 24%. The “percent of growth of human tumor cells” value (OVCAR-3) was 30%, the “% Growth” value (OVCAR-5) was −71% and the “percent of growth of human tumor cells” value (ACHN) was −27%. For the same molecule, the “percent of growth of human tumor cells” value (RXF-393) was 9%, the “percent of growth of human tumor cells” value (SN12C) was −37% and the “% Growth” value (DU-145) was −100%. The “percent of growth of human tumor cells” value (MCF 7) was −24%, the “percent of growth of human tumor cells” value (BT-549) was −50% and the “percent of growth of human tumor cells” value (HS 578T) was −14%. The “Percentage of cancers showing negative growth cancers tested” value (human cancer cells; 10^−5 M conc.) was 100% and the “Percentage of cancers showing negative growth cancers tested” value (human cancer cells; 10^−6 M conc.) was 100%.

Reference: patent publication US8124793B2, “Derivatives of ethylene methanedisulfonate as cancer chemotherapeutic agents” (priority 2007, dated 2012)
